In patent US12110295B2, “WD40 repeat domain protein 5 (WDR5) degradation/disruption compounds and methods of use” (Icahn School of Medicine at Mount Sinai, priority 2018, dated 2024):

molecular target: WDR5 (Homo sapiens, UniProt P61964); test: Screening of putative WDR5 degraders by Western blot in MV4;11 and/or MIAPACA2 cells; type: cell-based; set-up: After WDR5 degrader treatment, cells were collected and lysed; endogenous in cells; host or cells: MV4;11 and/or MIAPACA2; conditions: summary of screening, FIGS. 6-10
Protocol: MV4;11 cells were treated with DMSO or indicated compounds at 0.1 μM and 0.5 μM for 18 hours. […]. MIAPACA2 cells were treated with DMSO or indicated compounds at 0.5 μM and 1.0 μM for 18 hours.
MIAPACA2 cells were treated with DMSO or indicated compounds at 0.1 μM and 0.5 μM for 18 hours.
MIAPACA2 cells were treated with DMSO or indicated compounds at 0.5 μM and 1.0 μM or at 1.0 μM and 10 μM for 18 hours.
MV4;11 cells were treated with DMSO or indicated compounds at 0.1 μM and 1.0 μM for 18 hours.
WDR5 degraders were dissolved in DMSO and DMSO with no degraders was used as the control. 1×10^6 MV4;11 cells or 1×10^5 MIAPACA2 or 2×10^5 Hela cells were seeded in 2 mL medium for each well in […].
For prescreening of all the compounds, each test compound was added to the medium at indicated concentrations. After 18 h treatment, cells were collected.
After WDR5 degrader treatment, cells were collected and lysed. Total cell lysates were used for western blot. The following primary antibodies were used: WDR5 (Santa Cruz), vinculin (Cell Signaling Technology), tubulin (Cell Signaling Technology), GAPDH (Santa Cruz). Blots were imaged using fluorescence-labeled secondary antibodies on ChemiDoc™ Imaging Systems.

| effective degradation of WDR5 in MV4;11 and/or MIAPACA2 cells | SMILES |
| --- | --- |
| able to effectively degrade WDR5 | Cc1ncsc1-c1ccc(CNC(=O)[C@@H]2C[C@@H](O)CN2C(=O)[C@@H](NC(=O)COCCNC(=O)CCC(=O)N2CCN(c3ccc(-c4cc(NC(=O)c5c[nH]c(=O)cc5C(F)(F)F)c(N5C[C@@H](C)N(C)[C@@H](C)C5)cc4F)cn3)CC2)C(C)(C)C)cc1 [XF067-140, N-(4-fluoro-5-(6-(4-(4-((2-(2-(((S)-1-((2S,4R)-4-hydroxy-2-((4-(4-methylthiazol-5-yl)benzyl)carbamoyl)pyrrolidin-1-yl)-3,3-dimethyl-1-oxobutan-2-yl)amino)-2-oxoethoxy)ethyl)amino)-4-oxobutanoyl)piperazin-1-yl)pyridin-3-yl)-2-((3S,5R)-3,4,5-trimethylpiperazin-1-yl)phenyl)-6-oxo-4-(trifluoromethyl)-1,6-dihydropyridine-3-carboxamide] |
| able to effectively degrade WDR5 | Cc1ncsc1-c1ccc([C@H](C)NC(=O)[C@@H]2C[C@@H](O)CN2C(=O)[C@@H](NC(=O)CCCCCCCCCC(=O)N2CCN(c3ccc(-c4cc(NC(=O)c5c[nH]c(=O)cc5C(F)(F)F)c(N5C[C@@H](C)N(C)[C@@H](C)C5)cc4F)cn3)CC2)C(C)(C)C)cc1 [XF067-134, N-(4-fluoro-5-(6-(4-(11-(((S)-1-((2S,4R)-4-hydroxy-2-(((S)-1-(4-(4-methylthiazol-5-yl)phenyl)ethyl)carbamoyl)pyrrolidin-1-yl)-3,3-dimethyl-1-oxobutan-2-yl)amino)-11-oxoundecanoyl)piperazin-1-yl)pyridin-3-yl)-2-((3S,5R)-3,4,5-trimethylpiperazin-1-yl)phenyl)-6-oxo-4-(trifluoromethyl)-1,6-dihydropyridine-3-carboxamide] |
| able to effectively degrade WDR5 | C[C@@H]1CN(c2ccc(-c3cc(CN4CCN(CCNC(=O)CCCCCCNc5cccc6c5C(=O)N(C5CCC(=O)NC5=O)C6=O)CC4)ccc3F)cc2NC(=O)c2c[nH]c(=O)cc2C(F)(F)F)C[C@H](C)N1C (stereo partly drawn) [XF078-23, N-(5′-((4-(2-(7-((2-(2,6-dioxopiperidin-3-yl)-1,3-dioxoisoindolin-4-yl)amino)heptanamido)ethyl)piperazin-1-yl)methyl)-2′-fluoro-4-((3S,5R)-3,4,5-trimethylpiperazin-1-yl)-[1,1′-biphenyl]-3-yl)-6-oxo-4-(trifluoromethyl)-1,6-dihydropyridine-3-carboxamide] |

More lines, now with the values behind:

| SMILES | effective degradation of WDR5 in MV4;11 and/or MIAPACA2 cells |
| --- | --- |
| Cc1ncsc1-c1ccc(CNC(=O)[C@@H]2C[C@@H](O)CN2C(=O)[C@@H](NC(=O)COCCOCCOCC(=O)N2CCN(c3ncc(-c4cc(NC(=O)c5ccc(F)cc5C(F)(F)F)c(N5C[C@@H](C)N(C)[C@@H](C)C5)cc4F)cn3)CC2)C(C)(C)C)cc1 [XF078-103, (2S,4R)-1-((S)-2-(tert-butyl)-14-(4-(5-(2-fluoro-5-(4-fluoro-2-(trifluoromethyl)benzamido)-4-((3S,5R)-3,4,5-trimethylpiperazin-1-yl)phenyl)pyrimidin-2-yl)piperazin-1-yl)-4,14-dioxo-6,9,12-trioxa-3-azatetradecanoyl)-4-hydroxy-N-(4-(4-methylthiazol-5-yl)benzyl)pyrrolidine-2-carboxamide] | able to effectively degrade WDR5 |
| Cc1ncsc1-c1ccc(CNC(=O)[C@@H]2C[C@@H](O)CN2C(=O)[C@@H](NC(=O)CCCCCCCCCC(=O)N2CC=C(c3cc(NC(=O)c4c[nH]c(=O)cc4C(F)(F)F)c(N4C[C@@H](C)N(C)[C@@H](C)C4)cc3F)CC2)C(C)(C)C)cc1 [XF078-46, N-(4-fluoro-5-(1-(11-(((S)-1-((2S,4R)-4-hydroxy-2-((4-(4-methylthiazol-5-yl)benzyl)carbamoyl)pyrrolidin-1-yl)-3,3-dimethyl-1-oxobutan-2-yl)amino)-11-oxoundecanoyl)-1,2,3,6-tetrahydropyridin-4-yl)-2-((3S,5R)-3,4,5-trimethylpiperazin-1-yl)phenyl)-6-oxo-4-(trifluoromethyl)-1,6-dihydropyridine-3-carboxamide] | able to effectively degrade WDR5 |
